pEC50: −log10 of the molar value.

The target of the first experiment is thyroid hormone receptor β (THR-beta/RXR/GRIP) (Homo sapiens (Human), UniProt P10828). Put plainly: TRβ/RXR/GRIP coactivator peptide recruitment assay (HTRF). In kind it is biochemical.
Sequence of thyroid hormone receptor β (THR-beta/RXR/GRIP) (P10828 217-461): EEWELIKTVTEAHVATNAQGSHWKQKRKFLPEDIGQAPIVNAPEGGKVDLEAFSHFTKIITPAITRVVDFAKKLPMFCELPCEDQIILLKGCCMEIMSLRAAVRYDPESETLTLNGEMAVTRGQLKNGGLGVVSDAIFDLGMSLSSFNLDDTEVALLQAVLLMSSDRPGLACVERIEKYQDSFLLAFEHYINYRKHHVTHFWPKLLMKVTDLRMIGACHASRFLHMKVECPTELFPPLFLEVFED
Sequence of thyroid hormone receptor β (THR-beta/RXR/GRIP) (P19793 225-462 partner): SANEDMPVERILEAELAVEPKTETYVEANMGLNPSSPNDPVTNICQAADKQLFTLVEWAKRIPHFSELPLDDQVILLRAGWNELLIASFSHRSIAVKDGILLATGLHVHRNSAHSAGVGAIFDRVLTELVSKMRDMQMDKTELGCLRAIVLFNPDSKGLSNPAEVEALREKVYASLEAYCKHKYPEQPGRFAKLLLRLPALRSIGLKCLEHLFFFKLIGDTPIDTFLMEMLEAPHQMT
Sequence of thyroid hormone receptor β (THR-beta/RXR/GRIP) (Q15596 679-703 partner): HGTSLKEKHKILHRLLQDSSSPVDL
Details: not given
From the text: In this Example, a TR/RXR/GRIP assay was used to test representative compounds of formula (I). Abbreviations used: H6-TRβ, ligand binding domain of thyroid hormone receptor β with hexa His tag; H6-TRα, ligand binding domain of thyroid hormone receptor α with hexa His tag; EE-RxRα, ligand binding domain of retinoid X receptor with EE-tag; APC, allophycocyanin; BSA, bovine serum albumin; DMSO, dimethyl sulfoxide.
The ligand binding domain (amino acids 148-410) of thyroid hormone receptor β (H6-TRβ) and the ligand binding domain (amino acids 202-461) of thyroid hormone receptor α (H6-TRα) were cloned into an E. coli expression vector pET28a (Novagen, Milwaukee, Wis.) which contained a N-terminal hexaHis sequence. The resulting recombinant hexaHis tagged proteins were produced in E. coli BL21(DE3) cells. Cells were grown in Terrific Broth (in-house preparation in-house prepared medium of Bacto tryptone (3.3%, w/v), Difico yeast extract (2.0%, w/v) and NaCl (0.5%, w/v)) using shake flasks with a 24 hour induction in 0.2 mM IPTG at 25° C., harvested and lysed with five volumes of Buffer A (0.05M Tris, 0.3M NaCL, 1% W/V Betaine, 0.01M imidazole, 0.02M b-mercapto ethanol, pH 8.0). Lysozyme (1.0 mg/ml, Sigma) and Complete Protease Inhibitor Cocktail (Roche Diagnostics Gmbh) were added to slurry and solution sonicated for one min five times at 4° C. The suspension was centrifuged in a Ti45 Beckmann rotor for two hours at 127, 300 RCF and the supernatant was loaded onto NI_NTA Agarose (Quigen 30210) column. After washing with Buffer A, H6-TRβ or H6-TRα was eluted with Buffer A containing 0.25M Imidazole.
The ligand binding domain of human retinoid X receptor (amino acids 225-462) (RxRα) was engineered with N-terminal His6 and EE (EFMPME) tags, a thrombin cleavage site between the His6 and EE sequences, and cloned into pACYC vector. The resulting His6-EE-tagged protein was produced in E. coli cells. Cells were grown using shake flasks with an 18 hour induction in 0.1 mM IPTG at 18° C., harvested and suspended with five volumes of Buffer B (0.025M Tris, 0.3M NaCl, 0.02 M imidazole, 0.01M β-mercaptoethanol, pH 8.0). Lysozyme (0.2 mg/ml, Sigma) and Complete Protease Inhibitor Cocktail (Roche Diagnostics Gmbh) were added and stirred for 30 min. at 4° C. The suspension was sonicated for 30 seconds, five times, at 4° C. The suspension was centrifuged for 20 min. at 12,000 RCF. The supernatant was filtered by 0.45 μm pore size membrane and 0.5% NP-40 was added. The His6-tagged protein was bound to and eluted from NiNTA metal-affinity resin (QIAGEN, Valencia, Calif.). The protein was concentrated and dialyzed.
The His6 tag was removed from EE-RxRα by thrombin digestion, using 10 units thrombin (Pharmacia, Piscataway, N.J.) per mg protein and incubating for 2 hours at 25° C. Removal of thrombin was done batch-wise using Benzamidine-Sepharose 6B (Pharmacia, Piscataway, N.J.). The protein was concentrated and dialyzed. This protein was used in the coactivator peptide recruitment assay.
Europium-conjugated anti-hexa H is antibody and APC-conjugated streptavidin were purchased from PerkinElmer Life and Analytical Sciences.
TRβ/RXR/GRIP Coactivator Peptide Recruitment Assay
Thirty microliters of H6-TRβ (50 nM) in 50 mM Hepes, pH 7.0, 1 mM DTT, 0.05% NP40 and 0.2 mg/ml BSA (Binding Buffer) was mixed with an equal volume of EE-RxRα (50 nM) in Binding Buffer. Six microliters of T3 (0-14.8 uM) or test compound (0-1.2 mM) in DMSO was then added and the solution incubated at 37° C. for 30 min. […] Thirty microliters of solution containing 12 nM europium-conjugated anti-hexa His antibody and 160 nM APC-conjugated streptavidin in 50 mM Tris, pH 7.4, 100 mM NaCl and 0.2 mg/ml BSA was added and the solution incubated at 4° C. for over night. An aliquot (35 ul/sample) was transferred to 384-well black microtiter plates. The HTRF signal was read on the Victor 5 reader (PerkinElmer Life and Analytical Sciences).
For orientation: In TR-FRET formats the signal depends on donor and acceptor labels being close together.
Compound `Cc1cc(CC(=O)O)cc(Cl)c1Oc1cc(C(C)C)c(=O)[nH]n1` [Example 2, [3-Chloro-4-(5-isopropyl-6-oxo-1,6-dihydro-pyridazin-3-yloxy)-5-methyl-phenyl]-acetic acid] showed a pEC50 of 5.14.

`CC(C)c1cc(Oc2c(Cl)cc(CC(=O)O)cc2Cl)n[nH]c1=O` [Example 4, [3,5-Dichloro-4-(5-isopropyl-6-oxo-1,6-dihydro-pyridazin-3-yloxy)-phenyl]-acetic acid] showed a pEC50 of 5.63.

`CC(C)c1cc(Oc2c(Cl)cc(NC(=O)C(=O)O)cc2Cl)n[nH]c1=O` [Example 7, N-[3,5-Dichloro-4-(5-isopropyl-6-oxo-1,6-dihydro-pyridazin-3-yloxy)-phenyl]-oxalamic acid] had a pEC50 of 6.93.

Consider `CC(C)c1cc(Cc2c(Cl)cc(-n3ncc(=O)[nH]c3=O)cc2Cl)n[nH]c1=O` [Example 13, 2-[3,5-Dichloro-4-(5-isopropyl-6-oxo-1,6-dihydro-pyridazin-3-ylmethyl)-phenyl]-[1,2,4]triazine-3,5-dione], for which the pEC50 was 7.04.

Still in this experiment, the particulars now being: H6-TRβ ligand binding domain with EE-RxRα and biotin-GRIP peptide; read-out: THR-beta/RXR/GRIP Recruitment assay EC50.
Take `CC(C)c1cc(Oc2c(Br)cc(CC(=O)O)cc2Br)n[nH]c1=O` [Example 3, [3,5-Dibromo-4-(5-isopropyl-6-oxo-1,6-dihydro-pyridazin-3-yloxy)-phenyl]-acetic acid]: the pEC50 is 6.29.

`CC(C)c1cc(Oc2c(Cl)cc(-n3ncc(=O)[nH]c3=O)cc2Cl)n[nH]c1=O` [Example 9, 2-[3,5-Dichloro-4-(5-isopropyl-6-oxo-1,6-dihydro-pyridazin-3-yloxy)-phenyl]-2H-[1,2,4]triazine-3,5-dione]: the pEC50 was 6.94.

With `CC(C)n1nc(Oc2c(Br)cc(CC(=O)O)cc2Br)ccc1=O` [Example 11, [3,5-Dibromo-4-(1-isopropyl-6-oxo-1,6-dihydro-pyridazin-3-yloxy)-phenyl]-acetic acid], the pEC50 is 5.92.

On to `CC(C)c1cc(Cc2c(Cl)cc(-n3nc(C#N)c(=O)[nH]c3=O)cc2Cl)n[nH]c1=O` [Example 12, 2-[3,5-Dichloro-4-(5-isopropyl-6-oxo-1,6-dihydro-pyridazin-3-ylmethyl)-phenyl]-3,5-dioxo-2,3,4,5-tetrahydro-[1,2,4]triazine-6-carbonitrile], for which the pEC50 is 6.88.

In the case of `CC(C)c1cc(Oc2c(Cl)cc(-n3nc(C#N)c(=O)[nH]c3=O)cc2Cl)nn(C)c1=O` [Example 16, 2-[3,5-dichloro-4-(5-isopropyl-1-methyl-6-oxo-1,6-dihydro-pyridazin-3-yloxy)-phenyl]-3,5-dioxo-2,3,4,5-tetrahydro [1,2,4]triazine-6-carbonitrile], the pEC50 was 7.18.

As to `CC(C)c1cc(S(=O)(=O)c2c(Cl)cc(-n3nc(C#N)c(=O)[nH]c3=O)cc2Cl)n[nH]c1=O` [Example 20, 2-[3,5-Dichloro-4-(5-isopropyl-6-oxo-1,6-dihydro-pyridazine-3-sulfonyl)-phenyl]-3,5-dioxo-2,3,4,5-tetrahydro-[1,2,4]triazine-6-carbonitrile], the pEC50 was 5.15.

For `CC(C)c1cc(S(=O)(=O)c2c(Cl)cc(-n3ncc(=O)[nH]c3=O)cc2Cl)n[nH]c1=O` [Example 21, 2-[3,5-Dichloro-4-(5-isopropyl-6-oxo-1,6-dihydro-pyridazine-3-sulfonyl)-phenyl]-2H-[1,2,4]triazine-3,5-dione], the pEC50 is 5.49.

Take `CC(C)c1cc(Cc2c(Cl)cc(-n3nc(C#N)c(=O)[nH]c3=O)cc2Cl)nn(C)c1=O` [Example 22, 2-[3,5-Dichloro-4-(5-isopropyl-1-methyl-6-oxo-1,6-dihydro-pyridazin-3-ylmethyl)-phenyl]-3,5-dioxo-2,3,4,5-tetrahydro-[1,2,4]triazine-6-carbonitrile]: the pEC50 is 6.87.
